We go through twelve compounds from ChEMBL document CHEMBL1201862, “PubChem BioAssay data set” (2004).

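Where inhibition never reached the appropriate level, the endpoint shown equals the highest concentration tested. Otherwise, values were interpolated linearly from a five-concentration, 48-hour dose response in 96-well plates. Abbreviation: GI50, concentration required for 50% inhibition of growth.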 Calls of active or inactive are those of the source. Cut-off read from the data, not from the text of the source: active = GI50 up to about 1.1 µM and inactive = higher.

Common to all, as to assay: inhibition of tumour cell growth, NCI panel, 48 h
In assay [1] the test system is A498.
Assay [2] concerns ACHN.
Assay [3] deals with DU-145.
Assay [4] relates to HCT-15.
Assay [5] relates to HL-60.
Assay [6] has as its system HOP-92.
Assay [7] deals with KM12.
In assay [8] the test system is NCI/ADR-RES.
For assay [9], the system named is OVCAR-3.
Assay [10] has as its system RXF 393.
Assay [11] deals with SF-295.
Assay [12] deals with SK-MEL-5.
Assay [13] concerns SN12C.
Assay [14] deals with SW-620.
For assay [15], the system named is U-251.
For assay [16], the system named is UACC-62.
The test system of assay [17] is UO-31.
For assay [18], the system named is Malme-3M.
The test system of assay [19] is SR.
In assay [20] the test system is PC-3.

As to `COc1cc(C2SCC(=O)N2NC(=O)c2ccc(NC(C)=O)cc2)cc(OC)c1OC` (configuration not stated), the GI50 in assay [1] was > 100 µM (inactive); in assay [2], > 100 µM (inactive); in [3], > 100 µM (inactive); in assay [4], more than 100 µM; in [5], > 100 µM (inactive); in assay [6] it was > 100 µM (inactive). Also, the GI50 in assay [7], in assay [8], in assay [9], in assay [10], in assay [11] and in assay [12] was > 100 µM (inactive) throughout. Also, the GI50 in [13], in assay [14], in [15], in assay [16] and in [17] was > 100 µM (inactive) in each case.

Take `Cc1ccc(C)c(NC(=O)CCc2n[nH]c(=S)o2)c1`: the GI50 in assay [1] is > 100 µM (inactive); in [2], > 100 µM (inactive); in assay [4], more than 100 µM; in assay [5], > 100 µM (inactive); in assay [6] it was > 100 µM (inactive); in assay [7], > 100 µM (inactive). The GI50 in assay [18], in assay [9], in [10], in assay [11], in assay [12] and in assay [13] was > 100 µM (inactive) throughout. Moreover, the GI50 in [19], in assay [14], in assay [15], in [16] and in assay [17] was > 100 µM (inactive) each time.

For `O=C1CC[C@@H](S(=O)(=O)c2ccccc2)[C@H](/C=C/c2ccccc2)O1`, the GI50 in [1] is > 100 µM (inactive); in assay [2], > 100 µM (inactive); in [4] it was more than 100 µM; in assay [5], > 100 µM (inactive); in assay [7], > 100 µM (inactive); in [18], > 100 µM (inactive). Moreover, the GI50 in assay [9], in assay [10], in [11], in assay [12], in assay [13] and in [19] was > 100 µM (inactive) in each case. Besides, the GI50 in assay [14], in assay [15], in [16] and in assay [17] was > 100 µM (inactive) each time.

As to `COC(=O)c1c2cccccc-2c(Cc2c3cccccc-3c(C(=O)OC)c2O)c1O`, the GI50 in [1] was > 100 µM (inactive); in assay [2], > 100 µM (inactive); in assay [4], more than 100 µM; in [5], > 100 µM (inactive); in [6] it was > 100 µM (inactive); in [7], > 100 µM (inactive). The GI50 in assay [18], in assay [9], in assay [11], in assay [12], in [13] and in [19] was > 100 µM (inactive) each time. Also, the GI50 in [14], in assay [15], in assay [16] and in assay [17] was > 100 µM (inactive) throughout.

For the compound `O=C1/C(=C/c2cccc3ccccc23)Cc2ccccc21`, the GI50 in [1] is 37 µM (inactive); in assay [2] it was 36.5 µM (inactive); in assay [4], 34.9 µM; in [5], 28.4 µM (inactive); in [7], 35.9 µM (inactive); in assay [8], 52.2 µM (inactive). Further, the GI50 was 27.1 µM (inactive) in assay [9]; 16.9 µM (inactive) in assay [20]; 16.7 µM (inactive) in assay [10]; 29.9 µM (inactive) in assay [12]; 49.5 µM (inactive) in [13]; 57.3 µM (inactive) in assay [19]. The GI50 in assay [14] is 31.6 µM (inactive); in assay [15] it was 19.6 µM (inactive); in [16], 22.4 µM (inactive); in assay [17], 22.1 µM (inactive).

On to `CCOc1cc2c(cc1OC)c[n+](C)c1c3cc(OC)c(OC)cc3ccc21`, for which the GI50 in assay [1] is 47.6 µM (inactive); in assay [2], > 100 µM (inactive); in assay [4] it was more than 75.2 µM; in assay [5] it was 17.2 µM (inactive); in assay [6], 27 µM (inactive); in [7] it was 72.4 µM (inactive). The GI50 in assay [18] is > 77.6 µM (inactive); in assay [9] it was > 100 µM (inactive); in assay [10] it was 34 µM (inactive); in assay [11], > 100 µM (inactive); in assay [12] it was > 50.4 µM (inactive); in assay [13], 77.4 µM (inactive). Further, the GI50 in [19] is 46.6 µM (inactive); in assay [14], 46.5 µM (inactive); in [15] it was > 33.4 µM (inactive); in [16], > 91 µM (inactive); in assay [17], > 100 µM (inactive).

For `N[C@H](CCC(=O)NCP(=O)(O)O)C(=O)O`, the GI50 is > 100 µM (inactive) in [1]; > 100 µM (inactive) in [2]; more than 100 µM in [4]; > 100 µM (inactive) in assay [5]; > 100 µM (inactive) in [7]; > 100 µM (inactive) in assay [18]. The GI50 in [8] is > 100 µM (inactive); in assay [9], > 100 µM (inactive); in [20] it was > 100 µM (inactive); in [11], 5.33 µM (inactive); in assay [12], > 100 µM (inactive); in assay [13], > 100 µM (inactive). Further, the GI50 in assay [19], in assay [14], in assay [15], in assay [16] and in assay [17] was > 100 µM (inactive) throughout.

`CCN(CC)C(=S)SCC(=O)Nc1nc2c(s1)CCCC2`: the GI50 in assay [1] is > 100 µM (inactive); in [2] it was > 100 µM (inactive); in [4], 24.6 µM; in assay [5], 19.4 µM (inactive); in assay [6], 68.2 µM (inactive); in assay [7], > 100 µM (inactive). For the same compound, the GI50 in assay [18] is > 100 µM (inactive); in assay [11], 85.5 µM (inactive); in [12], 26 µM (inactive); in assay [13], > 100 µM (inactive); in assay [19], 27.6 µM (inactive); in assay [14], > 100 µM (inactive). In addition, the GI50 in [15] was 70.1 µM (inactive); in [17] it was 36.7 µM (inactive).

On to `O=C(/C=C/c1ccc([N+](=O)[O-])o1)N1CCN(Cc2ccccc2)CC1`, for which the GI50 was 15.7 µM (inactive) in assay [1]; 14.7 µM (inactive) in [2]; 4.41 µM in assay [4]; 2.56 µM (inactive) in [5]; 14.1 µM (inactive) in [6]; 12.1 µM (inactive) in [7]. Moreover, the GI50 in assay [9] is 17.7 µM (inactive); in [10], 11.8 µM (inactive); in assay [11], 15.3 µM (inactive); in assay [12], 10.2 µM (inactive); in [13] it was 9.04 µM (inactive); in [19] it was 13 µM (inactive). Besides, the GI50 in assay [14] was 7.08 µM (inactive); in [15], 14 µM (inactive); in [16], 6.82 µM (inactive); in [17] it was 17.3 µM (inactive).

For the compound `FC(F)(F)c1ccc2nc(Sc3ccc4ccccc4c3)cnc2c1`, the GI50 is 28.6 µM (inactive) in assay [1]; > 100 µM (inactive) in assay [2]; > 100 µM (inactive) in [3]; 44.7 µM in [4]; 31.6 µM (inactive) in [5]; > 100 µM (inactive) in assay [6]. Also, the GI50 in assay [7] is > 100 µM (inactive); in [18] it was > 100 µM (inactive); in assay [8] it was 60 µM (inactive); in [10], 21.9 µM (inactive); in assay [11], 65.2 µM (inactive); in assay [12], 28.1 µM (inactive). Further, the GI50 in assay [13] was 73.8 µM (inactive); in assay [14], 77.4 µM (inactive); in [15] it was 25.2 µM (inactive); in assay [16] it was 64.9 µM (inactive); in [17], > 100 µM (inactive).

For `COc1cc2c(c(OC)c1)C(=O)C(=O)C(CC1(C)OCCCO1)=C2`, the GI50 in assay [1] is 17.2 µM (inactive); in assay [2], 6.61 µM (inactive); in [4] it was 6.25 µM; in assay [5], 1.85 µM (inactive); in [6], 1.89 µM (inactive); in [7], 16 µM (inactive). For the same compound, the GI50 in assay [18] is 8.2 µM (inactive); in assay [9], 3.8 µM (inactive); in assay [10], 4.38 µM (inactive); in assay [11] it was 13.9 µM (inactive); in [12], 6.05 µM (inactive); in assay [13] it was 13.2 µM (inactive). Further, the GI50 in [19] is 3.3 µM (inactive); in [14] it was 1.79 µM (inactive); in [15], 15.3 µM (inactive); in [16] it was 7.91 µM (inactive); in assay [17], 12.7 µM (inactive).

As for `Cn1cc2ccccc2c1-c1nc(F)nc(OCC(=O)[C@H]2CCC3[C@@H]4CCC5=CC(=O)CC[C@]5(C)C4[C@@H](O)C[C@@]32C)n1` (some centres not stated), the GI50 was 17.3 µM (inactive) in assay [1]; 17.7 µM (inactive) in assay [2]; 7.18 µM in assay [4]; 6.27 µM (inactive) in [5]; 19.8 µM (inactive) in assay [6]; 16.6 µM (inactive) in [7]. For the same compound, the GI50 in assay [18] was 18.9 µM (inactive); in assay [9], 17 µM (inactive); in assay [10], 3.92 µM (inactive); in [11] it was 23.8 µM (inactive); in [12] it was 20.3 µM (inactive); in assay [13], 15.7 µM (inactive). Moreover, the GI50 is 2.86 µM (inactive) in assay [19]; 8.04 µM (inactive) in [14]; 19.4 µM (inactive) in [15]; 17.1 µM (inactive) in [16]; 19.6 µM (inactive) in assay [17].
